# Measured values: paper PMC5218480 (PLoS ONE, 2017)
# Test system: MV-4-11 cells
# Assay: Gene expression microarray analysis (Affymetrix PrimeView) and GSEA
# Assay type: cell-based, human
# Set-up: RFU PODN (11730768_x_at) / Fold change /veh PODN (11730768_x_at) / RFU LINC00158 (11744669_a_at) / Fold change /veh LINC00158 (11744669_a_at) / RFU DUSP10 (11751237_a_at) / Fold change /veh DUSP10 (11751237_a_at) / RFU ID3 (11757404_x_at) / Fold change /veh ID3 (11757404_x_at) / RFU PLEKHG5 (11737974_s_at) / Fold change /veh PLEKHG5 (11737974_s_at) / RFU LRRC4B (11730491_at) / Fold change /veh LRRC4B (11730491_at) / RFU GIMAP4 (11747438_a_at) / Fold change /veh GIMAP4 (11747438_a_at) / RFU KRT8 (11758183_x_at) / Fold change /veh KRT8 (11758183_x_at) / RFU CNN1 (11734310_a_at) / Fold change /veh CNN1 (11734310_a_at) / RFU VPS37D (11726825_at) / Fold change /veh VPS37D (11726825_at) / RFU C10orf10 (11716522_x_at) / Fold change /veh C10orf10 (11716522_x_at) / RFU KIR2DL2 /// KIR2DL4 /// KIR2DL5A /// KIR2DL5B /// KIR2DS1 /// KIR2DS2 /// KIR2DS3 /// KIR2DS4 /// KIR3DL3 /// KIR3DL3 /// KIR3DS1 (11738374_at) / Fold change /veh KIR2DL2 /// KIR2DL4 /// KIR2DL5A /// KIR2DL5B /// KIR2DS1 /// KIR2DS2 /// KIR2DS3 /// KIR2DS4 /// KIR3DL3 /// KIR3DL3 /// KIR3DS1 (11738374_at) / RFU C1QL1 (11718748_at) / Fold change /veh C1QL1 (11718748_at) / RFU TMPRSS4 (11747572_a_at) / Fold change /veh TMPRSS4 (11747572_a_at) / RFU HAMP (11756126_x_at) / Fold change /veh HAMP (11756126_x_at) / RFU RNFT2 (11725882_a_at) / Fold change /veh RNFT2 (11725882_a_at) / RFU NR4A2 (11747474_a_at) / Fold change /veh NR4A2 (11747474_a_at) / RFU ABCC12 (11746883_a_at) / Fold change /veh ABCC12 (11746883_a_at) / RFU TMEM136 (11760407_x_at) / Fold change /veh TMEM136 (11760407_x_at) / RFU CLDN22 /// WWC2 (11732394_at) / Fold change /veh CLDN22 /// WWC2 (11732394_at) / RFU HLA-DPB1 (11760878_x_at) / Fold change /veh HLA-DPB1 (11760878_x_at) / RFU SPINT1 (11716480_a_at) / Fold change /veh SPINT1 (11716480_a_at) / RFU GAP43 (11754022_s_at) / Fold change /veh GAP43 (11754022_s_at) / RFU A4GNT (11735810_at) / Fold change /veh A4GNT (11735810_at) / RFU PRB3 (11715151_x_at) / Fold change /veh PRB3 (11715151_x_at) / RFU TUBB4B (11761932_at) / Fold change /veh TUBB4B (11761932_at) / RFU CAPN14 (11732068_a_at) / Fold change /veh CAPN14 (11732068_a_at) / RFU TMCC2 (11721928_a_at) / Fold change /veh TMCC2 (11721928_a_at) / RFU IRGQ (11745062_a_at) / Fold change /veh IRGQ (11745062_a_at) / RFU FAM174B (11720279_a_at) / Fold change /veh FAM174B (11720279_a_at) / RFU TMPRSS4 (11748680_a_at) / Fold change /veh TMPRSS4 (11748680_a_at) / RFU FAM212B (11763350_a_at) / Fold change /veh FAM212B (11763350_a_at) / RFU PLEKHG5 (11743358_a_at) / Fold change /veh PLEKHG5 (11743358_a_at) / RFU ZSCAN30 (11745921_a_at) / Fold change /veh ZSCAN30 (11745921_a_at) / RFU CMKLR1 (11741424_a_at) / Fold change /veh CMKLR1 (11741424_a_at) / RFU LOC101060620 /// MAPK8IP1 (11723275_at) / Fold change /veh LOC101060620 /// MAPK8IP1 (11723275_at) / RFU SPTSSB (11747773_x_at) / Fold change /veh SPTSSB (11747773_x_at) / RFU PRSS12 (11739890_at) / Fold change /veh PRSS12 (11739890_at) / RFU BIN1 (11741810_x_at) / Fold change /veh BIN1 (11741810_x_at) / RFU WNT11 (11732464_a_at) / Fold change /veh WNT11 (11732464_a_at) / RFU C10orf10 (11716521_a_at) / Fold change /veh C10orf10 (11716521_a_at) / RFU C5orf56 (11738089_at) / Fold change /veh C5orf56 (11738089_at) / RFU CYB561 (11721691_x_at) / Fold change /veh CYB561 (11721691_x_at) / RFU ANKRD19P (11752326_a_at) / Fold change /veh ANKRD19P (11752326_a_at) / RFU OR2T12 /// OR2T33 /// OR2T8 (11738714_s_at) / Fold change /veh OR2T12 /// OR2T33 /// OR2T8 (11738714_s_at) / RFU VCAN (11748164_a_at) / Fold change /veh VCAN (11748164_a_at) / RFU JSRP1 (11732532_at) / Fold change /veh JSRP1 (11732532_at) / RFU KRTAP10-11 (11738290_x_at) / Fold change /veh KRTAP10-11 (11738290_x_at) / RFU MYO3A (11730013_a_at) / Fold change /veh MYO3A (11730013_a_at) / RFU EBF3 (11725865_a_at) / Fold change /veh EBF3 (11725865_a_at) / RFU CAMK2N1 (11719241_x_at) / Fold change /veh CAMK2N1 (11719241_x_at) / RFU C5orf56 (11738088_a_at) / Fold change /veh C5orf56 (11738088_a_at) / RFU OLFML3 (11715873_a_at) / Fold change /veh OLFML3 (11715873_a_at) / RFU LOC100653217 /// NTM (11731650_a_at) / Fold change /veh LOC100653217 /// NTM (11731650_a_at) / RFU MAPK11 (11762145_a_at) / Fold change /veh MAPK11 (11762145_a_at) / RFU FIZ1 (11724087_x_at) / Fold change /veh FIZ1 (11724087_x_at) / RFU OASL (11726364_x_at) / Fold change /veh OASL (11726364_x_at) / RFU SOX15 (11748057_x_at) / Fold change /veh SOX15 (11748057_x_at) / RFU CD79A (11719716_a_at) / Fold change /veh CD79A (11719716_a_at) / RFU HIST1H1D (11736915_at) / Fold change /veh HIST1H1D (11736915_at) / RFU CASKIN2 (11723855_a_at) / Fold change /veh CASKIN2 (11723855_a_at) / RFU LOC730098 (11760151_x_at) / Fold change /veh LOC730098 (11760151_x_at) / RFU OR4N2 (11742367_at) / Fold change /veh OR4N2 (11742367_at) / RFU PRRT2 (11749266_a_at) / Fold change /veh PRRT2 (11749266_a_at) / RFU SNX32 (11753110_a_at) / Fold change /veh SNX32 (11753110_a_at) / RFU CDHR5 (11726645_a_at) / Fold change /veh CDHR5 (11726645_a_at) / RFU RCAN1 (11760418_a_at) / Fold change /veh RCAN1 (11760418_a_at) / RFU FAM167A (11723789_a_at) / Fold change /veh FAM167A (11723789_a_at) / RFU FAM26E (11764081_at) / Fold change /veh FAM26E (11764081_at) / RFU ISYNA1 (11749810_s_at) / Fold change /veh ISYNA1 (11749810_s_at) / RFU ACY1 (11761880_at) / Fold change /veh ACY1 (11761880_at) / RFU 11764098_at / Fold change /veh 11764098_at / RFU SAMD14 (11745864_x_at) / Fold change /veh SAMD14 (11745864_x_at) / RFU NPB (11741838_a_at) / Fold change /veh NPB (11741838_a_at) / RFU TMPRSS6 (11731388_a_at) / Fold change /veh TMPRSS6 (11731388_a_at) / RFU KRTAP10-2 (11738614_at) / Fold change /veh KRTAP10-2 (11738614_at) / RFU ARHGAP8 /// PRR5-ARHGAP8 (11727945_x_at) / Fold change /veh ARHGAP8 /// PRR5-ARHGAP8 (11727945_x_at) / RFU KRTAP5-7 /// NADSYN1 (11734609_at) / Fold change /veh KRTAP5-7 /// NADSYN1 (11734609_at) / RFU RASL12 (11751679_a_at) / Fold change /veh RASL12 (11751679_a_at) / RFU CDKN2B (11736163_a_at) / Fold change /veh CDKN2B (11736163_a_at) / RFU PRF1 (11729649_at) / Fold change /veh PRF1 (11729649_at) / RFU, ZNF638 /// ZNF638-IT1 / Fold change vs veh, ZNF638 /// ZNF638-IT1 / RFU, PANK3 / Fold change vs veh, PANK3 / RFU, SH3YL1 / Fold change vs veh, SH3YL1 / RFU, ZEB2 / Fold change vs veh, ZEB2 / RFU, NRIP1 / Fold change vs veh, NRIP1 / RFU, PTTG1IP / Fold change vs veh, PTTG1IP / RFU, CAPN2 / Fold change vs veh, CAPN2 / RFU, MED14 / Fold change vs veh, MED14 / RFU, SNORA58 / Fold change vs veh, SNORA58 / RFU, C1orf63 / Fold change vs veh, C1orf63 / RFU, LRRFIP1 / Fold change vs veh, LRRFIP1 / RFU, NDUFAF7 / Fold change vs veh, NDUFAF7 / RFU, SLC12A2 / Fold change vs veh, SLC12A2 / RFU, IBTK / Fold change vs veh, IBTK / RFU, ESF1 / Fold change vs veh, ESF1 / Fold change vs veh, TMEM50B / RFU, TAOK1 / Fold change vs veh, TAOK1 / RFU, ACBD3 / Fold change vs veh, ACBD3 / RFU, TMA16 / Fold change vs veh, TMA16 / RFU, RWDD3 / Fold change vs veh, RWDD3 / RFU, BCAT1 / Fold change vs veh, BCAT1 / RFU, EDEM3 / Fold change vs veh, EDEM3 / RFU, TMEM33 / Fold change vs veh, TMEM33 / RFU, WDR75 / Fold change vs veh, WDR75 / RFU, AHCTF1 / Fold change vs veh, AHCTF1 / RFU, TFRC / Fold change vs veh, TFRC / RFU, ZDHHC17 / Fold change vs veh, ZDHHC17 / RFU, NOM1 / Fold change vs veh, NOM1 / RFU, ARL8B / Fold change vs veh, ARL8B / RFU, ZBTB11 / Fold change vs veh, ZBTB11 / RFU, TAMM41 / Fold change vs veh, TAMM41 / RFU, KIAA1704 /// LOC100996395 / Fold change vs veh, KIAA1704 /// LOC100996395 / RFU, ING1 / Fold change vs veh, ING1 / RFU, TRMT61B / Fold change vs veh, TRMT61B / RFU, FUBP3 / Fold change vs veh, FUBP3 / RFU, TP53 / Fold change vs veh, TP53 / RFU, TNKS2 / Fold change vs veh, TNKS2 / RFU, ZFP14 / Fold change vs veh, ZFP14 / RFU, ACTR2 / Fold change vs veh, ACTR2 / RFU, PPP3R1 / Fold change vs veh, PPP3R1 / RFU, PIK3R1 / Fold change vs veh, PIK3R1 / RFU, HNRNPA1 / Fold change vs veh, HNRNPA1 / RFU, RNF170 / Fold change vs veh, RNF170 / RFU, ZNF28 / Fold change vs veh, ZNF28 / RFU, RNGTT / Fold change vs veh, RNGTT / RFU, OGT / Fold change vs veh, OGT / RFU, BRD1 / Fold change vs veh, BRD1 / RFU, MARS / Fold change vs veh, MARS / RFU, ZNF655 / Fold change vs veh, ZNF655 / RFU, FAHD1 / Fold change vs veh, FAHD1 / RFU, BDP1 / Fold change vs veh, BDP1 / RFU, LRRCC1 / Fold change vs veh, LRRCC1 / RFU, ARID1A / Fold change vs veh, ARID1A / RFU, ZNF146 / Fold change vs veh, ZNF146 / RFU, ZNF330 / Fold change vs veh, ZNF330 / RFU, GPN3 / Fold change vs veh, GPN3 / RFU, C9orf123 / Fold change vs veh, C9orf123 / RFU, N4BP2L2 / Fold change vs veh, N4BP2L2 / RFU, ARFIP1 / Fold change vs veh, ARFIP1 / RFU, FAM179B / Fold change vs veh, FAM179B / RFU, BCL10 / Fold change vs veh, BCL10 / RFU, UHRF1BP1L / Fold change vs veh, UHRF1BP1L / RFU, BET1 / Fold change vs veh, BET1 / RFU, CNOT2 / Fold change vs veh, CNOT2 / RFU, ZNF268 / Fold change vs veh, ZNF268 / Fold change vs veh, ZNF507 / RFU, DGCR2 / Fold change vs veh, DGCR2 / RFU, WDSUB1 / Fold change vs veh, WDSUB1 / Fold change vs veh, HSP90B1 /// MIR3652 / RFU, ADSS / Fold change vs veh, ADSS / RFU, GK / Fold change vs veh, GK / RFU, ZNF148 / Fold change vs veh, ZNF148 / RFU, TAF9 / Fold change vs veh, TAF9 / RFU, SLC1A5 / Fold change vs veh, SLC1A5 / RFU, SLMO2 / Fold change vs veh, SLMO2 / RFU, ABCC4 / Fold change vs veh, ABCC4 / RFU, LOC101060439 /// RAP1B / Fold change vs veh, LOC101060439 /// RAP1B / RFU, RFX7 / Fold change vs veh, RFX7 / RFU, GTPBP10 / Fold change vs veh, GTPBP10 / RFU, CNEP1R1 / Fold change vs veh, CNEP1R1 / RFU, BIVM-ERCC5 /// ERCC5 / Fold change vs veh, BIVM-ERCC5 /// ERCC5 / RFU, ILF3 / Fold change vs veh, ILF3 / RFU 11762660_at / Fold change /veh 11762660_at / RFU VCAN (11757783_s_at) / Fold change /veh VCAN (11757783_s_at) / RFU DDX43 (11728927_at) / Fold change /veh DDX43 (11728927_at) / RFU KRT8 (11758188_x_at) / Fold change /veh KRT8 (11758188_x_at) / RFU NKD1 (11759106_at) / Fold change /veh NKD1 (11759106_at) / RFU SRD5A1 (11742802_a_at) / Fold change /veh SRD5A1 (11742802_a_at) / RFU TPSAB1 /// TPSB2 (11721975_s_at) / Fold change /veh TPSAB1 /// TPSB2 (11721975_s_at) / RFU GSTM3 (11746129_a_at) / Fold change /veh GSTM3 (11746129_a_at) / RFU IL23R (11737362_x_at) / Fold change /veh IL23R (11737362_x_at) / RFU TMEM51 (11727254_a_at) / Fold change /veh TMEM51 (11727254_a_at) / RFU PIWIL2 (11732686_x_at) / Fold change /veh PIWIL2 (11732686_x_at) / RFU ORM1 (11744905_x_at) / Fold change /veh ORM1 (11744905_x_at) / RFU CCDC152 (11743942_at) / Fold change /veh CCDC152 (11743942_at) / RFU ECM1 (11717891_a_at) / Fold change /veh ECM1 (11717891_a_at) / RFU IL23R (11748794_a_at) / Fold change /veh IL23R (11748794_a_at) / RFU TNFAIP8L3 (11732012_x_at) / Fold change /veh TNFAIP8L3 (11732012_x_at) / RFU MBOAT4 (11741988_at) / Fold change /veh MBOAT4 (11741988_at) / RFU 11764193_at / Fold change /veh 11764193_at / RFU TMEM53 (11763286_at) / Fold change /veh TMEM53 (11763286_at) / RFU MAGEB2 (11727129_at) / Fold change /veh MAGEB2 (11727129_at) / RFU TMEM200A (11744735_a_at) / Fold change /veh TMEM200A (11744735_a_at) / RFU CCDC152 (11751479_a_at) / Fold change /veh CCDC152 (11751479_a_at) / RFU FAM211A (11726209_a_at) / Fold change /veh FAM211A (11726209_a_at) / RFU RGS16 (11746705_a_at) / Fold change /veh RGS16 (11746705_a_at) / RFU VCAN (11755009_s_at) / Fold change /veh VCAN (11755009_s_at) / RFU RHOB (11743442_s_at) / Fold change /veh RHOB (11743442_s_at) / RFU RGS16 (11720943_a_at) / Fold change /veh RGS16 (11720943_a_at) / RFU RGS16 (11720944_at) / Fold change /veh RGS16 (11720944_at) / RFU, VPS4B / Fold change vs veh, VPS4B / RFU, CREB1 / Fold change vs veh, CREB1 / RFU, DNAJC13 / Fold change vs veh, DNAJC13 / RFU, GNAQ / Fold change vs veh, GNAQ / RFU, CDK5R1 / Fold change vs veh, CDK5R1 / RFU, ZRANB3 / Fold change vs veh, ZRANB3 / RFU, CUL4A / Fold change vs veh, CUL4A / RFU, CCNY / Fold change vs veh, CCNY / RFU, UFL1 / Fold change vs veh, UFL1 / RFU, COG3 / Fold change vs veh, COG3 / RFU, DIAPH2 / Fold change vs veh, DIAPH2 / RFU, SKA2 / Fold change vs veh, SKA2 / RFU, AFF3 / Fold change vs veh, AFF3 / RFU, LMF1 / Fold change vs veh, LMF1 / RFU, IPO11 / Fold change vs veh, IPO11 / RFU, DFFB / Fold change vs veh, DFFB / RFU, FOXP1 / Fold change vs veh, FOXP1 / RFU, CARD8 / Fold change vs veh, CARD8 / RFU, STRN3 / Fold change vs veh, STRN3 / RFU, ADK / Fold change vs veh, ADK / RFU, RASSF2 / Fold change vs veh, RASSF2 / RFU, WIPF1 / Fold change vs veh, WIPF1 / RFU, LARP1B / Fold change vs veh, LARP1B / RFU, RASA1 / Fold change vs veh, RASA1 / RFU, RB1 / Fold change vs veh, RB1 / RFU, PPFIA1 / Fold change vs veh, PPFIA1 / RFU, MAT2A / Fold change vs veh, MAT2A / RFU, CCT5 / Fold change vs veh, CCT5 / RFU, WDR92 / Fold change vs veh, WDR92 / RFU, CUX1 / Fold change vs veh, CUX1 / RFU, TTC7A / Fold change vs veh, TTC7A / RFU, TMEM135 / Fold change vs veh, TMEM135 / RFU, DEPTOR / Fold change vs veh, DEPTOR / RFU, CPM / Fold change vs veh, CPM / RFU, DNAJB6 / Fold change vs veh, DNAJB6 / RFU, CACNA2D3 / Fold change vs veh, CACNA2D3 / RFU, DTX4 / Fold change vs veh, DTX4 / RFU, TFCP2 / Fold change vs veh, TFCP2 / RFU, GMCL1 /// GMCL1P1 / Fold change vs veh, GMCL1 /// GMCL1P1 / RFU, AEBP2 / Fold change vs veh, AEBP2 / RFU, SNHG1 /// SNORD22 /// SNORD25 /// SNORD26 /// SNORD27 /// SNORD28 /// SNORD29 /// SNORD31 / Fold change vs veh, SNHG1 /// SNORD22 /// SNORD25 /// SNORD26 /// SNORD27 /// SNORD28 /// SNORD29 /// SNORD31 / Fold change (Aza/veh), C12orf56 (ProbeSet 11735607_a_at) / Fold change (ACY-1035/veh), C12orf56 (ProbeSet 11735607_a_at) / Fold change (Aza/veh), FGFR1OP (ProbeSet 11751329_s_at) / Fold change (ACY-1035/veh), FGFR1OP (ProbeSet 11751329_s_at) / Fold change (Aza/veh), VPS36 (ProbeSet 11739960_a_at) / Fold change (ACY-1035/veh), VPS36 (ProbeSet 11739960_a_at) / RFU SYPL1 (11715823_x_at) / Fold change /veh SYPL1 (11715823_x_at) / RFU IGFBP7 (11715501_s_at) / Fold change /veh IGFBP7 (11715501_s_at) / RFU REEP3 (11722064_at) / Fold change /veh REEP3 (11722064_at) / RFU IGLL1 (11728026_x_at) / Fold change /veh IGLL1 (11728026_x_at): dose or concentration left out as unconfirmed
# Details: ProbeSet 11745428_a_at; LIST D
smiles,measurement,value
Nc1ncn([C@@H]2O[C@H](CO)[C@@H](O)[C@H]2O)c(=O)n1 [azacitidine],"RFU, DFFB",92.76 RFU
